In the NIST ThermoML archive (doi:10.1021/je400551d):
“And” between values parts separate entries of the source, which are not always exact repeats. Equal values may be shown once. Numbers after ± are expanded uncertainties.

Settings: Liquid, Manometric method

CCCCCCCCCC [decane]
Settings | vapor or sublimation pressure [kPa]
299.25 K | 0.1732 ± 0.078
306.95 K | 0.3091 ± 0.078
309.15 K | 0.4116 ± 0.079
316.26 K | 0.6545 ± 0.079
326.1 K | 1.04 ± 0.21
340.05 K | 1.95 ± 0.21
347.9 K | 2.97 ± 0.22
353.32 K | 3.8 ± 0.22
358.67 K | 4.82 ± 0.22
362.85 K | 5.92 ± 0.23
365.13 K | 6.96 ± 0.23
370.4 K | 8.23 ± 0.23
377.13 K | 10.48 ± 0.23
379.93 K | 12 ± 0.24
382.83 K | 13.25 ± 0.24

COC(N)=O [carbamic acid, methyl ester]
Settings | vapor or sublimation pressure [kPa]
341.45 K | 1.31 ± 0.21
350.9 K | 1.91 ± 0.21
356.06 K | 2.5 ± 0.22
360.75 K | 3.55 ± 0.22
364.43 K | 4.19 ± 0.22
367 K | 4.48 ± 0.22
371.7 K | 5.42 ± 0.22
373.85 K | 6.23 ± 0.23
377.23 K | 7.14 ± 0.23
384.9 K | 9.83 ± 0.23
387.17 K | 10.96 ± 0.24
390.5 K | 12.39 ± 0.24
393.75 K | 13.99 ± 0.24

OCCO [1,2-ethanediol]
Settings | vapor or sublimation pressure [kPa]
336.45 K | 0.2527 ± 0.078
345 K | 0.4838 ± 0.079
355.15 K | 0.9002 ± 0.08
369.25 K | 1.69 ± 0.21
374.45 K | 2.13 ± 0.21
378.95 K | 2.66 ± 0.22
384.45 K | 3.57 ± 0.22
388.1 K | 4.4 ± 0.22
391.45 K | 5.33 ± 0.22
394.56 K | 6.01 ± 0.23
397.25 K | 7.14 ± 0.23
404.05 K | 9.2 ± 0.23
408.25 K | 11.34 ± 0.24

O [water]
Settings | vapor or sublimation pressure [kPa]
280.2 K | 1.29 ± 0.21
282.23 K | 1.34 ± 0.21
287.9 K | 1.82 ± 0.21
292.36 K | 2.13 ± 0.22
296.13 K | 2.78 ± 0.22
300.7 K | 3.47 ± 0.22
304.8 K | 4.54 ± 0.22
306.67 K | 4.82 ± 0.22
309.65 K | 5.9 ± 0.23
312.07 K | 6.75 ± 0.23
314.95 K | 7.78 ± 0.23
316.65 K | 8.45 ± 0.25
317.9 K | 9.45 ± 0.25
320.04 K | 10.62 ± 0.24
322.75 K | 11.78 ± 0.24

COC(=O)Nc1ccccc1 [methyl N-phenylcarbamate]
Settings | vapor or sublimation pressure
372.5 K | 0.2093 ± 0.078 kPa
374.46 K | 0.2248 ± 0.078 kPa
376.9 K | 0.254 ± 0.078 kPa
379.05 K | 0.308 ± 0.078 kPa
380.65 K | 0.3343 ± 0.078 kPa
383.31 K | 0.3891 ± 0.079 kPa
385.85 K | 0.4487 ± 0.079 kPa
387.85 K | 0.4996 ± 0.079 kPa
390.35 K | 0.5609 ± 0.079 kPa
391.76 K | 0.5914 ± 0.079 kPa
394.05 K | 0.651 ± 0.079 kPa
395.8 K | 0.719 ± 0.08 kPa
397.05 K | 0.7885 ± 0.08 kPa and 0.7897 ± 0.08 kPa
399.63 K | 0.9364 ± 0.08 kPa
399.83 K | 0.9418 ± 0.08 kPa
402.15 K | 1.06 ± 0.21 kPa
409.85 K | 1.29 ± 0.21 kPa
412.9 K | 1.54 ± 0.21 kPa
415.9 K | 1.97 ± 0.21 kPa
418.45 K | 2.13 ± 0.21 kPa
